{
  "source": "patent US9931320B2",
  "about": "“Parasiticidal oral veterinary compositions comprising systemically-acting active agents, methods and uses thereof” (MERIAL INC., priority 2012, dated 2018)",
  "type_in_all_cases": "in vivo",
  "key": {"[1]": {"system": "ticks (Dermacentor variabilis)", "assay": "Efficacy of soft chews against induced tick infestations on dogs (Example 2)", "settings": "for % Reduction Ticks: soft chew of Table 6, once on Day 0, dogs; for Percent reduction against ticks: Table 6 soft chew, treated once on Day 0, dogs", "method": "Sixteen beagles were studied to determine the effectiveness of a soft chewable veterinary composition comprising Compound A against induced infestations of Dermacentor variabilis and Ctenocephalides felis.\nFour Treatment Groups containing four dogs each were formed. Dogs in Group 1 were untreated. […] All dogs were treated once on Day 0.\nAll dogs were infested with approximately 100 C. felis on Days −1, 8, 15, 22, 29, 35, 43, 57 and 71. All dogs were also infested with approximately 50 D. variabilis on Days −1, 7, 14, 21, 28, 34 and 42. Both ticks and fleas were counted upon removal on Days 2, 9, 16, 23, 30, 36 and 44. Fleas were counted upon removal for all Treatment Groups on Days 58 and 72."}, "[2]": {"system": "Amblyomma americanum (lone star tick)", "assay": "Efficacy against induced Amblyomma americanum infestations on dogs (Example 4)", "settings": "at least approx. 2.5 mg/kg once on Day 0", "method": "Two treatment groups were formed, each containing eight dogs each. Dogs in Group 1 were untreated. Dogs in Group 2 were treated once on Day 0 with soft chewable compositions containing Compound A at a concentration to deliver a dose of at least approximately 2.5 mg/kg.\nTicks were counted on Days 2, 9, 16, 23, 30 and 38. The percent efficacy of the treated group versus the untreated control group 48 hours after infestation exceeded 91% at Days 2, 9, 16 and 23, with percent efficacy values of 99.2, 98.7, 99.4 and 91.7, respectively (p-values≤0.001). At Day 38 the percent efficacy was measured at 89.7%."}, "[3]": {"system": "Amblyomma americanum", "assay": "Long lasting efficacy against A. americanum on dogs (Example 6, Table 52)", "method": "Forty two beagles were allotted to seven groups of six dogs each. Groups 1 and 2 served as untreated controls. Groups 3, 4 and 5 were each treated on Day 0 with three different compositions of the invention described in Tables 30, 31 and 32, respectively, containing Compound A in an amount to deliver a dose of about 20 mg/kg of body weight. Similarly, on Day 0, Groups 6 and 7 were each treated with the compositions described in Tables 30 and 32, respectively, containing Compound A to deliver a dose of about 20 mg/kg of body weight.\nDogs in Groups 1, 3, 4 and 5 were infested with approximately 50 A. americanum and dogs in Groups 2, 6 and 7 were infested with approximately 50 D. variabilis on Days −1, 42, 56, 70, 77, 84, 91 and 98. Dogs in Groups 1, 2, 3, 6 and 7 were also infested on Day 105. Ticks were counted upon removal at approximately 48 hours post treatment on Day 2 and 48 hours post infestation on Days 44, 58, 72, 79, 86, 93, 100 and 107. Tables 52 and 53 below show the exceptional long-lasting efficacy of the inventive compositions against A. americanum and D. variabilis."}},
  "data": [
    {"smiles": "O=C(CNC(=O)c1ccc(C2=NOC(c3cc(Cl)cc(C(F)(F)F)c3)(C(F)(F)F)C2)c2ccccc12)NCC(F)(F)F", "note": "(stereo not shown) [Compound A, 4-[5-[3-chloro-5-(trifluoromethyl)phenyl]-4,5-dihydro-5-(trifluoromethyl)-3-isoxazolyl]-N-[2-oxo-2-[(2,2,2-trifluoroethyl)amino]ethyl]-1-naphthalenecarboxamide]", "values": [
      {"measurement": "% Reduction Ticks", "setting": "[1]; Group 2, approximately 1.5 mg/kg, Day 2", "result": 100.0, "unit": "%"},
      {"measurement": "% Reduction Ticks", "setting": "[1]; Group 2, approximately 1.5 mg/kg, Day 9", "result": 99.2, "unit": "%"},
      {"measurement": "% Reduction Ticks", "setting": "[1]; Group 2, approximately 1.5 mg/kg, Day 16", "result": 100.0, "unit": "%"},
      {"measurement": "% Reduction Ticks", "setting": "[1]; Group 2, approximately 1.5 mg/kg, Day 23", "result": 92.1, "unit": "%"},
      {"measurement": "% Reduction Ticks", "setting": "[1]; Group 2, approximately 1.5 mg/kg, Day 30", "result": 99.5, "unit": "%"},
      {"measurement": "% Reduction Ticks", "setting": "[1]; Group 2, approximately 1.5 mg/kg, Day 36", "result": 82.4, "unit": "%"},
      {"measurement": "% Reduction Ticks", "setting": "[1]; Group 2, approximately 1.5 mg/kg, Day 44", "result": 68.3, "unit": "%"},
      {"measurement": "% Reduction Ticks", "setting": "[1]; Group 3, approximately 2.5 mg/kg, Day 2", "result": 100.0, "unit": "%"},
      {"measurement": "% Reduction Ticks", "setting": "[1]; Group 3, approximately 2.5 mg/kg, Day 9", "result": 100.0, "unit": "%"},
      {"measurement": "% Reduction Ticks", "setting": "[1]; Group 3, approximately 2.5 mg/kg, Day 16", "result": 99.1, "unit": "%"},
      {"measurement": "% Reduction Ticks", "setting": "[1]; Group 3, approximately 2.5 mg/kg, Day 23", "result": 97.2, "unit": "%"},
      {"measurement": "% Reduction Ticks", "setting": "[1]; Group 3, approximately 2.5 mg/kg, Day 30", "result": 94.3, "unit": "%"},
      {"measurement": "% Reduction Ticks", "setting": "[1]; Group 3, approximately 2.5 mg/kg, Day 36", "result": 96.9, "unit": "%"},
      {"measurement": "% Reduction Ticks", "setting": "[1]; Group 3, approximately 2.5 mg/kg, Day 44", "result": 88.1, "unit": "%"},
      {"measurement": "% Reduction Ticks", "setting": "[1]; Group 4, approximately 3.5 mg/kg, Day 2", "result": 100.0, "unit": "%"},
      {"measurement": "% Reduction Ticks", "setting": "[1]; Group 4, approximately 3.5 mg/kg, Day 9", "result": 100.0, "unit": "%"},
      {"measurement": "% Reduction Ticks", "setting": "[1]; Group 4, approximately 3.5 mg/kg, Day 16", "result": 99.5, "unit": "%"},
      {"measurement": "% Reduction Ticks", "setting": "[1]; Group 4, approximately 3.5 mg/kg, Day 23", "result": 100.0, "unit": "%"},
      {"measurement": "% Reduction Ticks", "setting": "[1]; Group 4, approximately 3.5 mg/kg, Day 30", "result": 98.1, "unit": "%"},
      {"measurement": "% Reduction Ticks", "setting": "[1]; Group 4, approximately 3.5 mg/kg, Day 36", "result": 91.9, "unit": "%"},
      {"measurement": "% Reduction Ticks", "setting": "[1]; Group 4, approximately 3.5 mg/kg, Day 44", "result": 84.7, "unit": "%"},
      {"measurement": "Percent reduction against ticks", "setting": "[1]; through Day 36, Groups 3 and 4", "result": "> 90", "unit": "%"},
      {"measurement": "Percent reduction against ticks", "setting": "[1]; through and including Day 30, all treatment groups (approx. 1.5, 2.5 or 3.5 mg/kg)", "result": "> 90", "unit": "%"},
      {"measurement": "Percent efficacy versus untreated control group", "setting": "[2]; 48 hours after infestation, at Days 2, 9, 16 and 23, Table 10 soft chew", "result": "exceeded 91%"},
      {"measurement": "Percent efficacy versus untreated control group", "setting": "[2]; Day 2, 48 hours after infestation, Table 10 soft chew", "result": 99.2, "unit": "%"},
      {"measurement": "Percent efficacy versus untreated control group", "setting": "[2]; Day 9, 48 hours after infestation, Table 10 soft chew", "result": 98.7, "unit": "%"},
      {"measurement": "Percent efficacy versus untreated control group", "setting": "[2]; Day 16, 48 hours after infestation, Table 10 soft chew", "result": 99.4, "unit": "%"},
      {"measurement": "Percent efficacy versus untreated control group", "setting": "[2]; Day 23, 48 hours after infestation, Table 10 soft chew", "result": 91.7, "unit": "%"},
      {"measurement": "Percent efficacy versus untreated control group", "setting": "[2]; Day 38, Table 10 soft chew", "result": 89.7, "unit": "%"},
      {"measurement": "Duration of excellent control of Amblyomma americanum", "setting": "[2]; Table 10 soft chew", "result": "> 30", "unit": "days"},
      {"measurement": "% Reduction Ticks", "setting": "[3]; Group 3, composition of Table 30, about 20 mg/kg once on Day 0, dogs, Day 2", "result": 100.0, "unit": "%"},
      {"measurement": "% Reduction Ticks", "setting": "[3]; Group 3, composition of Table 30, about 20 mg/kg once on Day 0, dogs, Day 44", "result": 98.4, "unit": "%"},
      {"measurement": "% Reduction Ticks", "setting": "[3]; Group 3, composition of Table 30, about 20 mg/kg once on Day 0, dogs, Day 58", "result": 98.8, "unit": "%"},
      {"measurement": "% Reduction Ticks", "setting": "[3]; Group 3, composition of Table 30, about 20 mg/kg once on Day 0, dogs, Day 72", "result": 99.5, "unit": "%"},
      {"measurement": "% Reduction Ticks", "setting": "[3]; Group 3, composition of Table 30, about 20 mg/kg once on Day 0, dogs, Day 79", "result": 94.4, "unit": "%"},
      {"measurement": "% Reduction Ticks", "setting": "[3]; Group 3, composition of Table 30, about 20 mg/kg once on Day 0, dogs, Day 86", "result": 98.9, "unit": "%"},
      {"measurement": "% Reduction Ticks", "setting": "[3]; Group 3, composition of Table 30, about 20 mg/kg once on Day 0, dogs, Day 93", "result": 99.5, "unit": "%"},
      {"measurement": "% Reduction Ticks", "setting": "[3]; Group 3, composition of Table 30, about 20 mg/kg once on Day 0, dogs, Day 100", "result": 95.6, "unit": "%"},
      {"measurement": "% Reduction Ticks", "setting": "[3]; Group 3, composition of Table 30, about 20 mg/kg once on Day 0, dogs, Day 107", "result": 93.4, "unit": "%"},
      {"measurement": "% Reduction Ticks", "setting": "[3]; Group 4, composition of Table 31, about 20 mg/kg once on Day 0, dogs, Day 2", "result": 100.0, "unit": "%"},
      {"measurement": "% Reduction Ticks", "setting": "[3]; Group 4, composition of Table 31, about 20 mg/kg once on Day 0, dogs, Day 44", "result": 99.4, "unit": "%"},
      {"measurement": "% Reduction Ticks", "setting": "[3]; Group 4, composition of Table 31, about 20 mg/kg once on Day 0, dogs, Day 58", "result": 99.4, "unit": "%"},
      {"measurement": "% Reduction Ticks", "setting": "[3]; Group 4, composition of Table 31, about 20 mg/kg once on Day 0, dogs, Day 72", "result": 97.7, "unit": "%"},
      {"measurement": "% Reduction Ticks", "setting": "[3]; Group 4, composition of Table 31, about 20 mg/kg once on Day 0, dogs, Day 79", "result": 88.6, "unit": "%"},
      {"measurement": "% Reduction Ticks", "setting": "[3]; Group 4, composition of Table 31, about 20 mg/kg once on Day 0, dogs, Day 86", "result": 97.5, "unit": "%"},
      {"measurement": "% Reduction Ticks", "setting": "[3]; Group 4, composition of Table 31, about 20 mg/kg once on Day 0, dogs, Day 93", "result": 97.7, "unit": "%"},
      {"measurement": "% Reduction Ticks", "setting": "[3]; Group 4, composition of Table 31, about 20 mg/kg once on Day 0, dogs, Day 100", "result": 90.9, "unit": "%"},
      {"measurement": "% Reduction Ticks", "setting": "[3]; Group 5, composition of Table 32, about 20 mg/kg once on Day 0, dogs, Day 2", "result": 100.0, "unit": "%"},
      {"measurement": "% Reduction Ticks", "setting": "[3]; Group 5, composition of Table 32, about 20 mg/kg once on Day 0, dogs, Day 44", "result": 100.0, "unit": "%"},
      {"measurement": "% Reduction Ticks", "setting": "[3]; Group 5, composition of Table 32, about 20 mg/kg once on Day 0, dogs, Day 58", "result": 99.5, "unit": "%"},
      {"measurement": "% Reduction Ticks", "setting": "[3]; Group 5, composition of Table 32, about 20 mg/kg once on Day 0, dogs, Day 72", "result": 100.0, "unit": "%"},
      {"measurement": "% Reduction Ticks", "setting": "[3]; Group 5, composition of Table 32, about 20 mg/kg once on Day 0, dogs, Day 79", "result": 98.8, "unit": "%"},
      {"measurement": "% Reduction Ticks", "setting": "[3]; Group 5, composition of Table 32, about 20 mg/kg once on Day 0, dogs, Day 86", "result": 97.8, "unit": "%"},
      {"measurement": "% Reduction Ticks", "setting": "[3]; Group 5, composition of Table 32, about 20 mg/kg once on Day 0, dogs, Day 93", "result": 98.2, "unit": "%"},
      {"measurement": "% Reduction Ticks", "setting": "[3]; Group 5, composition of Table 32, about 20 mg/kg once on Day 0, dogs, Day 100", "result": 87.8, "unit": "%"}
    ]}
  ]
}
